# According to a melting point compilation (Tetko et al.; mined from patent text by program, amines drawn as free bases though some values may be those of a salt):
row,Compound,melting point [°C]
1,O=S(=O)(Oc1cccc(OS(=O)(=O)C(F)(F)F)c1OS(=O)(=O)C(F)(F)F)C(F)(F)F,47.5 to 48.5
2,CC(=O)Nc1ccc(NC(=O)C=C2CC(C(=O)OCc3ccccc3)Nc3cc(Cl)cc(Cl)c32)cc1 (racemic),275
3,O=C1C(CCO)Oc2ccccc2N1Cc1cccc(Cl)c1 (stereo not given),63 to 67
4,Cc1cccc(C)c1-n1cc(C#N)c(=O)n(C)c1=O,198 to 200
5,CCCCCCCCCCCCCCCCCCOc1cc(C(=O)OC)cc(C(=O)OC)c1,54 to 55
6,COC(=O)C1(S(=O)(=O)N2CCC(c3ccc(Br)c(C)c3)CC2)CCOCC1,162 to 163
7,O=C(O)c1ccc(F)cc1NC(=O)c1ccccc1C(=O)O,187 to 188
8,CCCC(=O)OC[C@H]1O[C@@H](n2ccc(OCC)nc2=O)CS1 (relative stereo),59 to 61
9,CCOC1C=CC(=O)N1 (stereo not given),50 to 52
10,CC(=O)c1ccc(-c2ccccc2F)cc1,84.5 to 86.5
11,COC(=O)c1cc(N=C2C=CC(=O)C=C2)c(F)c(-c2ccc(Cl)cc2)n1,154 to 156
12,Cc1noc(C)c1-c1ccncc1OC1SCC(O)C(O)C1O (stereo not given),175 to 179
13,CCCNc1nc(C)c(CCCl)c(=O)n1C,150
14,COCO[C@@H](CCCCC1CCCCC1)CCc1ccc(C(C)(C)C)c(NC(=O)CC2c3ccccc3Oc3ccccc32)c1,71 to 73
15,CCOC(=O)NN=C(C)c1cccc(C(F)(F)F)c1,94 to 96
16,COCCOc1ccc(CCC2(O)CN3CCC2CC3)cc1 (stereo not given),116 to 117
17,CCCCN1CCC(CNC(=O)c2ccc(N)n3cc(-c4ccccc4)nc23)CC1,221
18,O=C(CNC(=O)c1cccc(-c2cccc3oc(Cc4cccc(C(F)(F)F)c4)cc23)c1)NCCO,89 to 94
19,CCOC(=O)c1cc(=O)c2cc(N3CCOCC3)c(=O)ccc2n1C,170 to 172
20,Nc1ccc(C(=O)N2CCOCC2)c(N)c1,114 to 115
21,COc1cccc(C(=O)c2sccc2Br)c1,40
22,Oc1cc(CN/C=C2\CN=Cc3ccc(Br)cc32)ccc1OC(F)F,256 to 258
23,Cc1nc2cnccc2n1-c1ccc(CCO)cc1,196 to 198
24,O=C(c1ccc(-n2ccc(C3CC3)n2)cc1C(F)(F)F)N1Cc2cccn2Cc2ccccc21,163 to 164
25,CC1=C2CCC(=O)C23CCC(C3)C1(C)C (stereo not given),35 to 36

row,Compound,melting point [°C]
1,CCOC(=O)c1cccc(Nc2ccncc2N)c1,80 to 91
2,N#CC1(N2CCN(c3ccc(N4CC(CCC(N)=O)OC4=O)cc3F)CC2)CCOCC1 (stereo not given),134 to 137
3,Cc1nn(C)c2c1N(C(=O)CN(C)C)c1ccccc1NC2=O,178 to 179
4,COC(=O)c1cccc(Cn2c(C(=O)Nc3nc(-c4cc(OC)c(C)cc4OC)c(CCC4CCCCC4)s3)cc3cc(C)cc(C)c32)c1,219 to 220
5,O=C1CCC(O)(c2nc3ccccc3s2)C(Sc2ccccc2)(Sc2ccccc2)C1 (stereo not given),150 to 151
6,CC1C(C)(C)C2=C(c3ncncc3CC2)C1(C)C (stereo not given),80
7,COc1cc(O)ccc1C=CC(=O)c1ccc(O)cc1,210 to 212
8,CC(c1ccc(C(F)(F)F)cc1[N+](=O)[O-])[N+](=O)[O-] (stereo not given),48
9,CC(SC(=O)c1ccccc1)C(=O)c1ccccc1NCC(=O)O (stereo not given),149 to 151
10,CNC(=O)N(O)C(C)C#Cc1cccc(Oc2ccccn2)c1 (stereo not given),147 to 149
11,CCOC(=O)c1csc(NC(=O)c2cc(C(C)(C)C)c(O)c(C(C)(C)C)c2)n1,233 to 235
12,NCC(C(=O)O)c1c[nH]c2cc(Cl)ccc12 (stereo not given),245 to 247
13,CC(=O)NC(Cc1c[nH]c2ccccc12)C(=O)CCc1cc(C(F)(F)F)cc(C(F)(F)F)c1 (stereo not given),50 to 53
14,Cn1cc(-c2cccc(C(=O)O)c2)c(=O)c(-n2cccn2)c1,280
15,CC1=C(N2CCN(C(=O)Nc3ccc(Cl)cc3)CC2)C(=O)c2ccccc2C1=O,190 to 192
16,N#Cc1ccc(CCC(O)c2ccc(C#N)cc2)cc1 (stereo not given),110 to 112
17,CS(=O)(=O)c1ccc(-c2cnn(-c3cccc(Cl)c3)c(=O)c2COC(=O)c2ccccc2)cc1,50 to 70
18,CN1CCN(S(=O)(=O)c2ccc(Br)s2)CC1,122
19,Cc1cc(C)c2c(c1C)OC(C)(CBr)C2 (stereo not given),39 to 40
20,CSc1cc2cc(C)ccc2cc1C=O,117 to 118
21,CC(C)(C)OC(=O)N1C[C@@H]2C(=O)CCC(c3ccccc3)(c3ccccc3)[C@@H]2C1,119
22,CCC1(CC)CC(c2ccc(OC)c(OC)c2)=NN(C2CCN(C(=O)c3ccccc3)CC2)C1=O,160 to 161
23,CCc1nc(CO)c(CO)[nH]1,173 to 174
24,COP(=O)(Cc1cc(C(C)(C)C)c(O)c(C(C)(C)C)c1)C1CCCCC1 (stereo not given),149 to 150
25,Cc1c([N+](=O)[O-])ccc2c1SC1(Cl)C=C(C(F)(F)F)C=C(Cl)C1O2 (stereo not given),135

row,Compound,melting point [°C]
1,CCCCc1nc2c(N)nc3ccc(OCc4ccccc4)cc3c2n1CCCCNC(=O)c1ccccc1,173 to 174
2,Cc1cc2cn[nH]c2c(C(=O)NC(C)C)c1NC(=O)c1cc(OCC(F)(F)F)nn1-c1ncccc1Cl,247 to 250
3,Cc1ccc2c(c1)c(O)c(C(=O)NC1CCCCC1)c(=O)n2C,218
4,CCOCc1cnc2c(N)cccc2c1Cl,90 to 93
5,CSc1nn2c(=O)cc(CCl)nc2s1,168 to 169
6,COc1cn(-c2ccc(-n3cccn3)cc2F)nc(-c2ccnn2-c2ccccc2)c1=O,214 to 216
7,CCOC(=O)c1cc(C(=O)C=CN(C)C)c(=O)[nH]c1C(=O)OCC,71
8,CCCCCCCCS(=O)(=O)ON=C(C#N)c1cccs1,77 to 82
9,CCCCCCCCCCC[C@@H](C[C@@H]1OC(=O)[C@H]1CCCCCC)OC(=O)[C@H](CC(C)C)NC(=O)OCc1ccccc1,43 to 46
10,COc1ccc(-c2cc3cc(F)c(F)cc3[nH]2)cc1NS(=O)(=O)c1cccs1,211 to 213
11,Cc1ccc(C2=NC(C)(C(C)C)C(=S)N2)cc1 (stereo not given),167 to 170
12,Cn1c(=N)c(F)cn(S(=O)(=O)c2ccccc2)c1=O,144
13,CC1COC(C(=O)C(C)(C)C)C(C(=O)C(C)(C)C)O1 (stereo not given),123
14,O=C(O)CN1CCCCC1,185 to 187
15,Cc1cc(-c2nnc3c4ccccc4c(OCc4nc[nH]n4)nn23)no1,260 to 262
16,COc1ccc(/C=C/c2c(Cl)cncc2Cl)c2c1OCCCO2,118 to 120
17,FC(F)(F)C1(c2cc(Cl)cc(Cl)c2)CC(c2cnc(Cl)c(Cl)c2)=NO1 (stereo not given),155 to 157
18,FC(F)(F)c1cc(CO[C@H]2CCCN(Cc3cccnn3)[C@H]2c2ccccc2)cc(C(F)(F)F)c1,111 to 113
19,CC(=O)CC(C)c1ccc(-c2ccccc2)c(F)c1 (stereo not given),85
20,O=C(NCC1(O)CCCCCC1)c1cc(-c2cccnc2C(=O)O)ccc1Cl,95 to 100
21,CC(C)CC1(SCCCN=[N+]=[N-])c2c([nH]c(=O)n(C)c2=O)SC1Cc1cccc2ccccc12 (stereo not given),94 to 96
22,O=C1c2ccccc2C(=O)N1CCCN(c1ccccc1)c1ccccn1,103 to 105
23,O=C(c1ccc(CCCCc2ccccc2)cc1)N(O)Cc1ccccc1,83.5 to 85
24,CCNC(=O)NC1CCCc2ccccc21 (stereo not given),178 to 179
25,Cc1ccc(-c2nc(-c3cnccc3C)sc2F)cc1,96

row,Compound,melting point [°C]
1,COCc1nc(C(=O)OC)c(C(=O)OC)[nH]1,93 to 95
2,CCOC(=O)c1ccc(C#CC(O)c2cc(C(C)(C)C)cc(C(C)(C)C)c2O)cc1 (stereo not given),142 to 144
3,CCOc1ccc2ccccc2c1C(=O)N[C@H](Cc1ccc(C(F)(F)F)cc1)[C@H](O)c1ccc(F)cc1 (racemic),157 to 158
4,COC(=O)c1cccc2c1[nH]c1c3cc(Br)ccc3oc21,204 to 205
5,COc1ccccc1N1CCN(CCn2c(=O)[nH]c3sc(Cl)cc3c2=O)CC1,228 to 230
6,COc1cccc([C@H]2O[C@H](CC(=O)Nc3cc(CCC(=O)O)ccc3C)C(=O)N(CC(C)(C)CO)c3ccc(Cl)cc32)c1OC,154 to 155
7,CC(=O)CC(=O)Nc1cccc(OCc2ccccc2)c1,80
8,CCOCc1nc2c(N)nc3ccccc3c2n1NCCCNC(=O)Nc1ccccc1,177 to 179
9,Cc1ccc(C(=O)C2C(=O)CCC(C)(C)C2=O)cc1 (stereo not given),78 to 79
10,Cc1c(C)c(N2CCN(c3c(C)c(C)c4c(c3C)CC(C)(C)O4)CC2)c(C)c2c1OC(C)(C)C2,256 to 260
11,CCOCCC(Cc1ccc(NC(=O)NC(=O)c2ccc(C(N)=S)cc2)cc1)C(=O)OC(C)(C)C (stereo not given),199 to 201
12,CNc1nnc(-c2cc3c(Oc4ccc(Cl)cc4)cncc3s2)s1,226 to 229
13,OC1CSC(Oc2cccnc2Cl)C(O)C1O (stereo not given),153
14,COc1ncc(C(=O)N(C)Cc2cc(C(F)(F)F)cc(C(F)(F)F)c2)c(-c2ccccc2)n1,101 to 102
15,NC(=O)C(=Cc1c[nH]c2ncccc12)c1ccccc1,222 to 224
16,CCNC(=O)c1cc(NS(=O)(=O)c2ccc(I)cc2)ccc1Oc1cncc(Cl)c1,154 to 156
17,O=S(=O)(Nc1ccc(Cl)cc1I)c1ccc2ncsc2c1,162
18,CCCCOc1ccc(-c2ccc3c(c2)C=C(C(=O)O)CCS3(=O)=O)cc1,244 to 247
19,CCN1c2ncccc2C(=O)N(C)c2ccc(-c3cnn(CC)c3)nc21,60 to 62
20,COc1nnc(Cl)c(-c2c(F)cc(F)cc2F)c1-c1ccc(Br)cc1,113 to 119
21,Cn1nnnc1C=C(c1ccccc1)c1ccccc1,147 to 148
22,CCCCCN1Cc2cc(C)ccc2CCC1=O,95 to 97
23,CCS(=O)(=O)Nc1ccc(S(=O)(=O)C=CC#N)cc1,177 to 180
24,COc1cc2ncnc(-c3cn(S(C)(=O)=O)c4ccccc34)c2cc1OC,> 220
25,CCOC(=O)COc1c(C)c(C(=O)c2ccc(C(=O)OC)cc2)n2ccccc12,84.5
